In US20250282829A1, “ENGINEERED SYNTHETIC PEPTIDES, COMPOSITIONS COMPRISING SAME, AND METHODS OF USE THEREOF FOR TREATING MALIGNANT GLIOMAS” (INSTYTUT BIOLOGII DOSWIADCZALNEJ IM. MARCELEGO NENCKIEGO …, priority 2022, published 2025):

Experiments:
[1] = tested on: U87 MG cells and SV40 human microglia cells; test: Matrigel invasiveness of U87 MG cells with SV40 human microglia; type: cell-based
Protocol: (§1) FIG. 4. Effect of OPN binding peptides on U87 MG cell invasiveness in the presence of murine BV2 and human SV40 microglial cells. (K−)—negative control—invasiveness of U87 MG cells without microglia; (K+)—positive control, invasiveness of U87 MG dependent on BV2 or SV40 microglia, defined as 100%; DMSO-cells treated with 0.2% DMSO-peptide solvent. Results are presented as means ±standard deviation calculated from three independent biological replicates. Selected peptides block microglia-dependent invasiveness.
(§2) Studies conducted by the present inventors indicate an important role of the OPN protein in the reprogramming of microglia and peripheral macrophages by glioblastoma cells to a protumorigenic phenotype (Ellert-Miklaszewska et al. 2016). […] Investigating the contribution of human OPN to human glioblastoma growth is important in the context of using a peptide that binds human OPN produced by glioma and can block communication between the glioma and the microenvironment. The U87 MG RFP human glioblastoma cell line was established with silenced expression of the OPN protein (shOPN). […] The number of glioma cells actively penetrating the Matrigel Matrix layer (BD Biosciences, extracellular matrix surrogate) in the presence of SV40 human microglial cells was counted. Microglial cells are plated on 24-well plate, after 24 hours, inserts previously covered with Matrigel suspension are placed in the wells, and glioblastoma cells are seeded on its surface. The tested compounds, potentially blocking the invasiveness of cells, are added in a certain concentration to the medium in both the lower and upper layers of the system. After 18 hours of incubation, the Matrigel is removed and the cells on the insert membrane (invading cells) are fixed and stained with a DAPI fluorescent marker. Slides were then photographed using a fluorescence microscope and cells were counted using Image J software (imagej.nih.gov/ij/).
(§3) The effect of selected OPN-binding peptides on the invasiveness of U87 MG cells stimulated by the presence of microglial cells was investigated. […]

recombinant OPN protein = recombinant OPN protein (Homo sapiens, UniProt P10451); test: ELISA assessing peptide-protein binding; conditions: N-terminal biotin peptides on OPN-coated plates
Protocol: FIGS. 2A and 2B. OPN-binding peptides. (FIG. 2A) OPN binding peptides were identified using peptide microarrays comprising synthetic peptides. Images of peptide microarrays after incubation with PBS buffer (control), with rhOPN and after immunochemical staining. Control peptides (peptide containing Myc tag—positive control) and peptides with the highest signal were marked on the microarray image. (FIG. 2B) OPN binding peptides identified using ELISA. Peptides with the strongest binding to OPN were selected. Means ±SD are shown, standard deviations were calculated from three independents measurements.
To verify the obtained results, the ELISA method assessing peptide-protein binding was used. In the assay, 96-well ELISA plates were coated with recombinant OPN protein. Uncoated wells were used as controls. Unbound proteins were then washed away and the remaining non-specific binding was blocked with bovine serum protein (BSA). Test peptides with N-terminal biotin attached were added. After incubation, unbound peptides were removed by washing several times. Peptides that bound to OPN were detected using a primary anti-biotin antibody and a secondary antibody linked to horseradish peroxidase. This enzyme catalyses a reaction in which a coloured product is formed from the added substrate. The amount of bound peptides was proportional to the amount of coloured product, which was measured using a spectrophotometer. Of the 52 integrin receptor-derived peptides tested, 9 OPN-binding peptides were identified: I3, I4, I20, I32, I38, I40, I47, I49, I50 (FIG. 2B). The following peptides were selected for further analysis: […], I4, I20, I32, I38, I40, I47, I49, I50.

[2] = tested on: U87 MG cells stimulated by BV2 microglial cells; test: Matrigel invasiveness of U87 MG cells in co-culture with BV2 microglia; type: cell-based, human; conditions: 100 μM, 18 h
Protocol: as §1, §2, §3

[3] = tested on: human glioblastoma U87 MG RFP cells implanted in the brain of nude mice; test: Mouse model of human glioblastoma, intratumoural osmotic pump, MRI tumour size; type: in vivo; conditions: osmotic pump for 3 weeks, MRI T2, control peptide I49S
Protocol: FIGS. 5A and 5B. Effect of peptide 149 on glioblastoma growth in mice. (FIG. 5A) Representative images obtained after vital MRI imaging. The pictures show a section through the center of the tumour, showing the cannula supplying the peptide from the osmotic pump. (FIG. 5B) Tumour volume (n=10) calculated using OsiriX DICOM Viewer from MRI scans.
The anticancer effect of the 149 peptide has been tested. The model of human glioblastoma U87 MG RFP cells implanted in the brain of nude (immunodeficient) mice was used. Peptides were administered via osmotic pumps delivering the peptide directly to the tumour at a constant rate. […] Peptide I49 or control peptide I49S were administered using pumps for 3 weeks, pumps were installed in the mouse brain immediately after implantation of U87 MG RFP cells. Magnetic resonance imaging (MRI T2) was used to assess the size of the tumours.

alphav integrins = target: T1, alphav integrins (Homo sapiens, UniProt P06756); conditions: large number of patients, phase III; cited from earlier work
T1 construct: host or cells: patients
T1 sequence (P06756 31-1048): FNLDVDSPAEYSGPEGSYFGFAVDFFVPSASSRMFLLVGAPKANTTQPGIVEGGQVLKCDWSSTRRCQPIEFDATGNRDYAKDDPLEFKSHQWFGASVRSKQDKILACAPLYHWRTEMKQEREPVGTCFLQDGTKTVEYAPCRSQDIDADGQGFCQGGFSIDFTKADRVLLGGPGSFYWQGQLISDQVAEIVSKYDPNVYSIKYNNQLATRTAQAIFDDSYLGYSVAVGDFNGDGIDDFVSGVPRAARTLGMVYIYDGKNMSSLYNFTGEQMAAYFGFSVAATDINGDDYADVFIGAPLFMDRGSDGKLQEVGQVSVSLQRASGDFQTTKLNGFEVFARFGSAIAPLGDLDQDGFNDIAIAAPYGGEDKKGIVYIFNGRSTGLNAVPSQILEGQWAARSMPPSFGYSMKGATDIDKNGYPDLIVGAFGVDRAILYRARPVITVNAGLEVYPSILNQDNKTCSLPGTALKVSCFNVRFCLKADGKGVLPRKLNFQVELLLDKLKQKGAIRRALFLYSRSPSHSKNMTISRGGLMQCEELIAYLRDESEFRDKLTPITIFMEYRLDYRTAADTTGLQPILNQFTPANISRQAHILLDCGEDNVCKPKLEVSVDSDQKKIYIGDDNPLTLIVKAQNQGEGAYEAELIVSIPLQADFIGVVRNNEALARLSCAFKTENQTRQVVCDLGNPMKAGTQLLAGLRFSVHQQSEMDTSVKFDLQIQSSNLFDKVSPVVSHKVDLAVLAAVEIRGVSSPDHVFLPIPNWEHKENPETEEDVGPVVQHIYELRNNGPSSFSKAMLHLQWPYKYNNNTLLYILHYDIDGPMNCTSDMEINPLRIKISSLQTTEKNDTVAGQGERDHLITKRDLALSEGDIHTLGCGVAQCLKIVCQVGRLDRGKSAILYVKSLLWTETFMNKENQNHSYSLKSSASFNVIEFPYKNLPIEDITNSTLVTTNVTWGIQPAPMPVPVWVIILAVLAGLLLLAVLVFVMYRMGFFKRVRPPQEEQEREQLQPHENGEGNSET

Chain of recombinant OPN protein (P10451 17-314): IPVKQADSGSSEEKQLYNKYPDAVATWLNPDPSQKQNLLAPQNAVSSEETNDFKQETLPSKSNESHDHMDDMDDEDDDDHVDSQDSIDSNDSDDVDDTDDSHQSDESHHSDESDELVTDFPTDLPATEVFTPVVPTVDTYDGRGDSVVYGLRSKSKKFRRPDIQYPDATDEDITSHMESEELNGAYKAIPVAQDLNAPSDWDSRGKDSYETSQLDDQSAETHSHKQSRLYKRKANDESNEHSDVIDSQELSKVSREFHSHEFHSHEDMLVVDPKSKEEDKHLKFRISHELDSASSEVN

Row | Molecule | effect on invasiveness of U87 cells in the presence of human SV40 microglia [1] | peptide binding to OPN in ELISA (recombinant OPN protein) | inhibition of microglia-dependent glioma cell invasiveness [2] | tumour growth compared to the control group [3] | clinical effectiveness (alphav integrins)
1 | SLYNFTGEQMAAYF (listed as Homo sapiens) [I50] | inhibited the invasiveness | OPN-binding | inhibited microglia-dependent glioma cell invasiveness |  | 
2 | SKYDPNVYSIKYNN (listed as Homo sapiens) [I40] | inhibited the invasiveness | OPN-binding | inhibited microglia-dependent glioma cell invasiveness |  | 
3 | YDGKNMSSLYNFTG [I49] | inhibited the invasiveness | OPN-binding | inhibited microglia-dependent glioma cell invasiveness | reduction in tumour growth | 
4 | CC(C)[C@H]1C(=O)N[C@@H](CCCN=C(N)N)C(=O)NCC(=O)N[C@@H](CC(=O)O)C(=O)N[C@H](Cc2ccccc2)C(=O)N1C [cilengitide, cyclo-(Arg-Gly-Asp-DPhe-NMe-Val)] |  |  |  |  | did not show the effectiveness
